In patent US9975860B2, “Anti-angiogenic compounds” (UNIVERSITY COLLEGE DUBLIN—NATIONAL UNIVERSITY OF IRELAND, …, priority 2014, dated 2018):
Entries after “also recorded” stand apart in the source; their conditions may differ.

Assays:
mouse aortic ring = assay: Ex vivo mouse aortic ring assay (sprout formation); details: 10 μM; C57/BL6 mouse aortic rings in matrigel; vs 0.1% DMSO; hydrochloride
Protocol: Aortae from sex matched C57/BL6 littermates were cleansed of adipose tissue, cut into 2 mm rings and immersed in matrigel. Aortic rings (6 per experiment) were treated with 0.1% DMSO (vehicle control/VC) or with 10 μM of Compound 4, Compound 12, Compound 15 or Compound 20. Sprouts from the perimeter of the aortic ring were counted and quantified as percentage of vehicle control (VC).

[1] = system: OE33P radiosensitive oesophageal adenocarcinoma cells; assay: Seahorse ECAR (glycolysis) in OE33P; type: cell-based, human; details: 10 μM, 24 hours
Protocol: (§1) OE33P radiosensitive oesophageal adenocarcinoma cells and OE33R radioresistant oesophageal adenocarcinoma cells were used to test the effects of the compound 4 on glycolysis. Cells were maintained in RPMI media supplemented with 10% foetal calf serum, penicillin (100 U/ml) and streptomycin (100 μg/ml). A total of 11,000 cells (OE33P) or 13,000 cells (OE33R), in 100 μl media, were seeded per well in 24 well plates and left to incubate for 24 hours, with an additional 150 μl media added after 5 hours. The media was replaced with solutions containing 10 μM of compound 4 or the equivalent volume of DMSO vehicle control. After 24 hours of treatment, media was replaced with modified DMEM supplemented with 0.5 mM glucose. Rates of glycolysis were determined using Seahorse Biosciences metabolism technology. The media was disposed and the cells washed with PBS. The cells were fixed with 1% glutaraldehyde for 15 minutes and then stained with crystal violet for 30 minutes. The plates were blotted and dried overnight. The cells were resuspended with 1% TritonX-100 and shaken for 15 minutes. The absorbance was read on a spectrophotometer at 595 nm Rates of glycolysis were then normalised to cell number.

[2] = system: OE33R radioresistant oesophageal adenocarcinoma cells; assay: Seahorse ECAR (glycolysis) in OE33R; type: cell-based, human; details: 10 μM, 24 hours
Protocol: as §1

[3] = system: HT29-LUC radioresistant colorectal adenocarcinoma cells; assay: Seahorse ECAR (glycolysis) in HT29-LUC; type: cell-based, human; details: 10 μM, 24 hours
Protocol: as §1, with “HT29-LUC” for “OE33P radiosensitive oesophageal adenocarcinoma cells and OE33R”, “colorectal” for “oesophageal”, “of” for “of the”, “McCoy's 5A” for “RPMI”, “serum.” for “serum, penicillin (100 U/ml) and streptomycin (100 μg/ml).”, “20,000 cells,” for “11,000 cells (OE33P) or 13,000 cells (OE33R),”

[4] = system: OE33P radiosensitive oesophageal adenocarcinoma cells; assay: Seahorse OCR (oxidative phosphorylation) in OE33P; type: cell-based, human; details: 10 μM, 24 hours
Protocol: as §1, with “radiosensitive” for “radiosensitive oesophageal adenocarcinoma cells”, “oxidative phosphorylation.” for “glycolysis.”, “11,000 OE33P” for “11,000”, “and” for “(OE33P) or”, “OE33R cells,” for “cells (OE33R),”, “oxidative phosphorylation” for “glycolysis”

[5] = system: OE33R radioresistant oesophageal adenocarcinoma cells; assay: Seahorse OCR (oxidative phosphorylation) in OE33R; type: cell-based, human; details: 10 μM, 24 hours, p<0.05
Protocol: as §1, with “radiosensitive” for “radiosensitive oesophageal adenocarcinoma cells”, “oxidative phosphorylation.” for “glycolysis.”, “11,000 OE33P” for “11,000”, “and” for “(OE33P) or”, “OE33R cells,” for “cells (OE33R),”, “oxidative phosphorylation” for “glycolysis”

MLH1 [6] = assay: qPCR DNA repair gene expression in OE33P: MLH1; type: cell-based, human; details: 10 μM, 24 hours, p<0.05
Protocol: (§2) OE33P radiosensitive oesophageal adenocarcinoma cells and OE33R radioresistant oesophageal adenocarcinoma cells were used to test the effects of the compound 4 on DNA repair gene expression. Cells were maintained in RPMI media supplemented with 10% foetal calf serum, penicillin (100 U/ml) and streptomycin (100 μg/ml). A total of 300,000 cells, in 2 ml media, were seeded per well in 6 well plates and left to incubate for 24 hours. The media was replaced with solutions containing 10 μM of compound 4 or the equivalent volume of DMSO vehicle control. After 24 hours of treatment, RNA was extracted from the cells and converted to cDNA. qPCR was then conducted and expression of MMS19, SMUG1 PARP1 and MLH1 was quantified, […]

SMUG1 [7] = assay: qPCR DNA repair gene expression in OE33P: SMUG1; type: cell-based, human; details: 10 μM, 24 hours
Protocol: as §2

PARP1 [8] = assay: qPCR DNA repair gene expression in OE33P: PARP1; type: cell-based, human; details: 10 μM, 24 hours
Protocol: as §2

SMUG1 [9] = assay: qPCR DNA repair gene expression in OE33R: SMUG1; type: cell-based, human; details: 10 μM, 24 hours
Protocol: as §2

PARP1 [10] = assay: qPCR DNA repair gene expression in OE33R: PARP1; type: cell-based, human; details: 10 μM, 24 hours
Protocol: as §2

MMS19 = assay: qPCR DNA repair gene expression in OE33R: MMS19; type: cell-based, human; details: 10 μM, 24 hours
Protocol: as §2

MLH1 [11] = assay: qPCR DNA repair gene expression in OE33R: MLH1; type: cell-based, human; details: 10 μM, 24 hours
Protocol: as §2

MLH1 [12] = assay: qPCR DNA repair gene expression in HT29-LUC: MLH1; type: cell-based, human; details: 10 μM, 24 hours, p<0.01
Protocol: HT29-LUC radioresistant colorectal adenocarcinoma cells were used to test the effects of the compound 4 on DNA repair gene expression. Cells were maintained in McCoy's 5A media supplemented with 10% foetal calf serum. A total of 300,000 cells, in 2 ml media, were seeded per well in 6 well plates and left to incubate for 24 hours. The media was replaced with solutions containing 10 μM of compound 4 or the equivalent volume of DMSO vehicle control. After 24 hours of treatment, RNA was extracted from the cells and converted to cDNA. qPCR was then conducted.

Cl.Oc1ccccc1/C=C/c1cnccn1 [Compound 4, (E)-2-[2-(Pyrazin-2-yl)vinyl]phenol hydrochloride]
angiogenesis (sprout formation) in aortic rings (mouse aortic ring): block angiogenesis (sprout formation); also recorded: inhibit the formation of sprouts in a statistically significant manner | extracellular acidification rate (ECAR), a measure of glycolysis [1]: does not significantly reduce extraceullar acidification rate | extracellular acidification rate (ECAR), a measure of glycolysis [2]: does not significantly reduce extraceullar acidification rate | extracellular acidification rate (ECAR), a measure of glycolysis [3]: does not significantly reduce extraceullar acidification rate | oxygen consumption rate (OCR), a measure of oxidative phosphorylation [4]: does not significantly reduce oxygen consumption rate | oxygen consumption rate (OCR), a measure of oxidative phosphorylation [5]: does significantly reduce OCR | expression of MLH1 (qPCR) (MLH1 [6]): significantly reduces | expression of SMUG1 (qPCR) (SMUG1 [7]): not significantly different to control | expression of PARP1 (qPCR) (PARP1 [8]): not significantly different to control | expression of SMUG1 (qPCR) (SMUG1 [9]): not significantly different to control | expression of PARP1 (qPCR) (PARP1 [10]): not significantly different to control | expression of MMS19 (qPCR) (MMS19): not significantly different to control | expression of MLH1 (qPCR) (MLH1 [11]): not significantly different to control | expression of MLH1 (qPCR) (MLH1 [12]): significantly reduces the expression of MLH1
